Laboratory results as given in patent US11191754B2, “Inhibitors of nucleotidyl transferases and uses in herpes and hepatitis viral infections therefor” (Saint Louis University, priority 2015, dated 2021).

Legend:
HBV [1] = details: HBV patients; cited from earlier work
HBV [2] = experiment: Chou-Talalay combination analysis with Lamivudine against HBV replication; type: cell-based, hepatitis B virus; details: together with Lamivudine; CI <1.0 indicates synergy
Text: Current nucleos(t)ide analog therapy for HBV has converted hepatitis type B from an implacably progressing illness to a controllable disease. However, patients are only very rarely cured, in part due to the incomplete inhibition of HBV replication. The inventors hypothesized that the novel RNaseH inhibitors would work synergistically with the existing nucleos(t)ide analogs because the two classes of drugs target physically distinct active sites on the viral polymerase protein. […] RNAseH inhibitors from two different chemical classes were employed, compound #1 [2-hydroxyisoquinoline-1,3(2H,4H)-dione], an HID, and #46 (β-thujaplicinol), an α-hydroxytropolone, were tested. Chou-Talaly analysis yields a combination index (CI). CI values <1.0 indicate synergy, CIs of approximately 1.0 indicate additive interactions, and CI values >1.0 indicate antagonism. CI values are calculated at various efficacy levels (EC50, EC75, EC90, and EC95), and a weighted CI value favoring higher efficacy levels is also generated. FIGS. 4A & 4B show the results of four experiments employing compound #1 and three with compound #46. […] Therefore, RNAseH inhibitors act strongly synergistically with an approved nucleos(t)ide analog drug against HBV.

HBV RNAseH = experiment: Biochemical RNAseH assay with patient-derived variant HBV RNAseH enzymes; design: species or system hepatitis B virus; details: four genotype D patient-derived enzymes; compound at its IC50 (FIGS. 5A & 5B)
Method: RNaseH activity was measured using an oligonucleotide-directed RNA cleavage assay as previously described in Hu, et al., Tavis, et al., and Cai, et al. (2013; 2013; and 2014, respectfully). Briefly, 6 μL protein extract was mixed on ice with an internally ^32P-labeled 264 nt RNA derived from the Duck Hepatitis B Virus genome (DRF+ RNA) plus 3 μg oligonucleotide D2507- or its inverse-complement oligonucleotide D2526+ as a negative control. This mixture was incubated with test compounds in 50 mM Tris pH 8.0, 190 mM NaCl, 5 mM MgCl2, 3.5 mM DTT, 0.05% NP40, 6% glycerol, and 1% DMSO at 42° C. for 90 minutes. Cleavage products were resolved by denaturing polyacrylamide gel electrophoresis, detected by autoradiography, and quantified using ImageJ. Non-specific background values were determined from the incorrect oligonucleotide negative control lane and subtracted from all experimental values. IC50 values were then calculated with GraphPad Prism using three-parameter log(inhibitor) vs. response non-linear curve fitting with the curve minimum set to zero to reflect background subtraction.
HBV has 8 genotypes differing in sequence by 8%. Genetic diversity in the RNAseH domain is about 6%, which is easily high enough to modulate viral sensitivity to RNAseH inhibitors. […]

Compound	sustained clinical improvement (HBV [1])	weighted combination index (CI) (HBV [2])	inhibition of HBV RNAseH (HBV RNAseH)
Interferon α	20-30 % of patients	–	–
CC(C)c1ccc(O)c(=O)c(O)c1 [#46, β-thujaplicinol]	–	0.44±0.3	about 50%
